Assay [1] deals with Acetylcholinesterase (Homo sapiens, UniProt P22303).
Description: Inhibition of AChE by Ellman method
Assay [2] relates to Tobacco mosaic virus. Nature of the assay: Antiviral activity against Tobacco mosaic virus U1 after 72 hrs by half leaf method. To be noted: for IC50: U1, 72 h. The format is functional, organism-based.
Assay [3] has as its system Tobacco mosaic virus. Nature of the assay: Antiviral activity against Tobacco mosaic virus U1 at 1 ug/mL after 72 hrs by half leaf method. To be noted: U1, 72 h. The class given is functional.

Active and inactive are the calls of the source. The calls are words filed in the database; no cut-off is given here.

Acetylcholinesterase, sequence (P22303 whole entry): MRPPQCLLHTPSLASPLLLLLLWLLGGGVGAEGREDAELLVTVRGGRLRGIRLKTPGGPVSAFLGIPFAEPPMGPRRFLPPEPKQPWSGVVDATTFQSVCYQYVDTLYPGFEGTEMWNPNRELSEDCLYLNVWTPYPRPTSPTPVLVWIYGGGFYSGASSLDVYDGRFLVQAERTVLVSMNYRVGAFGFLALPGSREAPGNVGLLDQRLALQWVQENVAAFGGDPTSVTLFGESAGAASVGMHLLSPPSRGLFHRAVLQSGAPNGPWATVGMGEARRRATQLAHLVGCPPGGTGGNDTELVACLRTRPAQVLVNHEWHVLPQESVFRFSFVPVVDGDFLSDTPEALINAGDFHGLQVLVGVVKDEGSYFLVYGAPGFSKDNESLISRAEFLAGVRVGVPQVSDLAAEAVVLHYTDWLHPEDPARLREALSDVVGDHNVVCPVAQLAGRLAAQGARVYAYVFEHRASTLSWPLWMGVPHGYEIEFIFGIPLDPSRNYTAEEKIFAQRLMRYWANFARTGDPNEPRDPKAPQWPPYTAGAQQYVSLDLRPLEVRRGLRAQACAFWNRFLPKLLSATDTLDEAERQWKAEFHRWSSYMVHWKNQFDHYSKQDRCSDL

In assay [1], `O[C@H]1[C@H]2c3cc4c(cc3CN3CCC(=C[C@@H]1O)[C@H]23)OCO4` [LYCORINE] displayed an IC50 of 155 µM. In addition, the outcome in assay [2] was inactive.

Take `COc1cc2c(cc1OC)[C@]1(OC2=O)[C@H](O)[C@@H](O)C=C2CCN(C)[C@H]21`: the IC50 in assay [1] came out at 2.32 µM. In assay [2], the result was inactive.

On to `CO[C@@H]1C=C[C@@]23c4cc5c(cc4CN(C[C@@H]2O)[C@H]3C1)OCO5` [(+)-HAEMANTHAMINE], for which, in assay [1], the 50% inhibitory concentration (IC50) was determined as 452 µM.

Turning to `O=C1N[C@H]2[C@H](O)[C@H](O)[C@@H](O)C[C@@H]2c2cc3c(cc21)OCO3`, the IC50 in assay [2] is 1.8 µM.

With `COc1cc2c(c(OC)c1OC)C(=O)O[C@]21[C@H](O)[C@@H](O)C=C2CCN(C)[C@H]21`, the half-maximal inhibitory concentration (IC50) in assay [1] was determined as 113 µM.

In turn, `COc1ccc2c3c(c4cc(OC)c(OC)cc4c2c1)C[C@H]1CCCN1C3` [(-)-ANTOFINE] displayed an inhibition at 1 µg/mL in assay [3] of 65%.

The compound `CC(=O)O[C@H]1[C@H]2c3cc4c(cc3CN3CCC(=C[C@@H]1O)[C@H]23)OCO4` had a half-maximal inhibitory concentration (IC50) in assay [1] of 0.96 µM.

As for `Oc1ccc2c3c1O[C@H]1C[C@@H](O)C=C[C@@]31CCNC2` [NORSANGUININE], in assay [1], the half-maximal inhibitory concentration (IC50) worked out at 1.43 µM. In assay [2], the result was inactive.

Take `COc1cc2c(c(OC)c1OC)C(=O)O[C@@H]1CC=C3CCN(C)[C@H]3[C@H]21`: the outcome in assay [2] was inactive.

Compound `[O-]c1cc2c3c(c1)c1cc4c(cc1c[n+]3CC2)OCO4` [UNGEREMINE] had an IC50 in assay [1] of 3.85 µM.

In the case of `O[C@@H]1C=C[C@@]23c4cc5c(cc4CN(C[C@@H]2O)[C@H]3C1)OCO5`, the outcome in assay [2] was inactive.

For the compound `CO[C@@H]1C=C[C@@]23c4cc5c(cc4[C@H](O)N(C[C@@H]2O)[C@H]3C1)OCO5`, the outcome in assay [2] was inactive.

Regarding `NC(=O)c1ncn([C@@H]2O[C@H](CO)[C@@H](O)[C@H]2O)n1` [RIBAVIRIN], in assay [2], 2990 µM corresponded to half-maximal inhibition (IC50).

As for `COc1cc2c(cc1OC)-c1cccc3c1N(CC3)C2` [ASSOANINE], 3.87 µM corresponded to half-maximal inhibition in assay [1] (IC50).

What is called IC50 is the midpoint of a concentration-inhibition curve. As usually defined, the inhibition is how much of the control response was suppressed. Higher therefore signals a strong effect.

Values taken from ChEMBL document CHEMBL1141279, “Benzylphenethylamine alkaloids from Hosta plantaginea with inhibitory activity against tobacco mosaic virus and acetylcholinesterase” (J Nat Prod, 2007).
